Measured values from ChEMBL document CHEMBL5370611, “Discovery of 4,5,6,7-Tetrahydropyrazolo[1.5-a]pyrizine Derivatives as Core Protein Allosteric Modulators (CpAMs) for the Inhibition of Hepatitis B Virus” (J Med Chem, 2023).
Converted amounts (≈) assume the structure as drawn.

Tests used:
Hepatitis B virus = assay: Antiviral activity against HBV infected in human HepG2.2.15 cells assessed as reduction in HBV DNA replication measured after 5 days by qPCR analysis; type: functional, organism-based; settings: HepG2.2.15, 120 h
[1] = Metabolic stability in human liver microsomes assessed as clearance at 1 uM preincubated for 10 mins and measured upto 30 mins in presence of NADPH generating system by LC-MS/MS analysis; type: ADME, Microsome; settings: time < 40 min
[2] = Selectivity index, ratio of CC50 for human HepDE19 cells assessed as reduction in cell viability to EC50 for HBV infected in human HepG2.2.15 cells assessed as reduction in HBV DNA replication; type: toxicity, cell-based; settings: HBV-infected HepG2.2.15 cells (EC50)
[3] = Lyophilization solubility of the compound in phosphate buffer at pH 6.5 incubated for 1 hr under stirring condition and 2 hrs under shaking condition by HPLC-UV analysis; type: physicochemical
[4] = Cytotoxicity against human HepDE19 cells assessed as reduction in cell viability measured after 5 days by CCK-8 method; type: functional; settings: HepDE19, 120 h, time 5 day
[5] = Metabolic stability in mouse liver microsomes assessed as clearance at 1 uM preincubated for 10 mins and measured upto 30 mins in presence of NADPH generating system by LC-MS/MS analysis; type: ADME, Microsome; settings: time < 40 min

| Structure (SMILES) | EC50 (Hepatitis B virus) [µM] | CLhep predicted at 1 µM [1] [mL/min/kg] | solubility at 3 h [3] [µg/mL] | CLhep predicted at 1 µM [5] [mL/min/kg] | selectivity ratio [2] | CC50 [4] [µM] |
| --- | --- | --- | --- | --- | --- | --- |
| O=C(Nc1ccc(F)c(Cl)c1)N1CCn2ncc(N3CCOCC3)c2C1 | 0.266 | 7.2 | 170 (≈ 448 µM) | 34 | > 376 | > 100 |
| O=C(Nc1ccc(Cl)cc1)N1CCn2ncc(-c3ccc(F)cc3)c2C1 | 0.366 |  |  |  | 79 | 29 |
| O=C(Nc1ccc(F)c(Cl)c1)N1CCn2ncc(NC3CCCC3)c2C1 | 2.3 | 19 | < 1 | 76 | > 43 | > 100 |
| O=C(Nc1cc(F)c(F)c(F)c1)N1CCn2ncc(-c3ccc(F)cc3)c2C1 | 0.387 | 16 |  | 63 | 80 | 31 |
| O=C(Nc1cccnc1)N1CCn2ncc(-c3ccc(F)cc3)c2C1 | 3.03 | 6 | 98 (≈ 290 µM) | 49 | > 33 | > 100 |
| O=C(Nc1cccnn1)N1CCn2ncc(-c3ccc(F)cc3)c2C1 | > 10 | 7 | 2 (≈ 5.91 µM) | 34 |  | > 100 |
| O=C(Nc1ccccc1)N1CCn2nnc(-c3ccc(F)cc3)c2C1 | 0.411 | 14 | 32 (≈ 94.9 µM) | 87 | > 243 | > 100 |
| CC1c2c(-c3ccc(F)cc3)cnn2CCN1C(=O)Nc1ccccc1 (configuration not stated) | 1.85 |  | < 1 |  | 24 | 45 |
| O=C(Nc1ccc(F)c(Cl)c1)N1CCn2ncc(N3CCCC3)c2C1 | 0.22 | 16 | 134 (≈ 368 µM) | 79 | 440 | 97 |
| CN(C(=O)N1CCn2ncc(-c3ccc(F)cc3)c2C1)c1ccccc1 | 2.19 |  |  |  | 42 | 93 |
| O=C(Nc1ccccc1F)N1CCn2ncc(-c3ccc(F)cc3)c2C1 | 0.939 |  |  |  | 13 | 12 |
| O=C(Nc1ccccn1)N1CCn2ncc(-c3ccc(F)cc3)c2C1 | > 10 | 17 | 2 (≈ 5.93 µM) | 80 |  | > 100 |
| Cc1ccc(NC(=O)N2CCn3ncc(-c4ccc(F)cc4)c3C2)cc1 | 1.2 |  |  |  | 28 | 34 |
| O=C(Nc1ccccc1)N1CCc2[nH]nc(-c3ccc(F)cc3)c2C1 | 0.377 | 21 | 5 (≈ 14.9 µM) | 63 | 156 | 59 |
| CCc1cccc(NC(=O)N2CCn3ncc(-c4ccc(F)cc4)c3C2)c1 | 0.248 |  |  |  | 220 | 55 |
| O=C(Nc1cccc(Cl)c1)N1CCn2ncc(-c3ccc(F)cc3)c2C1 | 0.308 | 18 | < 1 | 71 | 284 | 87 |
| O=C(Nc1ccccc1)N1CCn2cnc(-c3ccc(F)cc3)c2C1 | 0.286 | 14 | < 1 | 76 | > 349 | > 100 |
| O=C(NC1CCCC1)N1CCn2ncc(-c3ccc(F)cc3)c2C1 | 1.85 |  |  |  | > 54 | > 100 |
| O=C(Nc1cc(F)cc(F)c1)N1CCn2ncc(-c3ccc(F)cc3)c2C1 | 0.219 |  |  |  | 49 | 11 |
| O=C(Nc1cccc(F)c1)N1CCn2ncc(-c3ccc(F)cc3)c2C1 | 0.414 |  |  |  | 76 | 32 |
| O=C(c1ccccc1)N1CCn2ncc(-c3ccc(F)cc3)c2C1 | 3.76 |  |  |  |  |  |
| CCCc1cccc(NC(=O)N2CCn3ncc(-c4ccc(F)cc4)c3C2)c1 | 2.71 |  | 4.4 (≈ 11.6 µM) |  | 5 | 13 |
| O=C(NCc1ccccc1)N1CCn2ncc(-c3ccc(F)cc3)c2C1 | 1.44 |  |  |  | 63 | 91 |
| O=C(Cc1ccccc1)N1CCn2ncc(-c3ccc(F)cc3)c2C1 | 3.14 |  |  |  | > 32 | > 100 |
| O=C(Nc1ccccc1Cl)N1CCn2ncc(-c3ccc(F)cc3)c2C1 | > 10 |  |  |  |  | > 100 |

Stronger by EC50 (Hepatitis B virus), values ahead:

| EC50 (Hepatitis B virus) [µM] | CLhep predicted at 1 µM [1] [mL/min/kg] | solubility at 3 h [3] [µg/mL] | CLhep predicted at 1 µM [5] [mL/min/kg] | Structure (SMILES) | selectivity ratio [2] | CC50 [4] [µM] |
| --- | --- | --- | --- | --- | --- | --- |
| 0.131 |  |  |  | Cc1cccc(NC(=O)N2CCn3ncc(-c4ccc(F)cc4)c3C2)c1 | 672 | 88 |
| 0.111 |  | < 1 |  | C[C@@H]1Cn2ncc(-c3ccc(F)cc3)c2CN1C(=O)Nc1ccc(F)c(Cl)c1 | 234 | 26 |
| 0.04 | 8.7 | 515 (≈ 1260 µM) | 45 | C[C@@H]1[C@H](C)N(C(=O)Nc2cc(F)c(F)c(F)c2)Cc2c(N3CCCC3=O)cnn21 | > 2500 | > 100 |
| 0.032 | 16 |  | 68 | Cc1cc(NC(=O)N2CCn3ncc(-c4ccc(F)cc4)c3C2)ccc1F | 830 | 26 |
| 0.052 | 7.8 | 160 (≈ 423 µM) | 65 | O=C(Nc1ccc(F)c(Cl)c1)N1CCn2ncc(N3CCCC3=O)c2C1 | > 1930 | > 100 |
| 0.063 | 6.2 | 415 (≈ 1010 µM) | 29 | C[C@H]1Cn2ncc(N3CCOCC3=O)c2CN1C(=O)Nc1cc(F)c(F)c(F)c1 | > 1590 | > 100 |
| 0.11 | 16 | < 1 | 80 | O=C(Nc1ccc(F)c(Cl)c1)N1CCn2ncc(-c3ccc(F)cn3)c2C1 | 320 | 35 |
| 0.012 |  | < 1 |  | C[C@H]1Cn2ncc(-c3ccc(F)cc3)c2CN1C(=O)Nc1ccc(F)c(Cl)c1 | 2170 | 26 |
| 0.036 | 17 | < 1 | 66 | O=C(Nc1ccc(F)c(Cl)c1)N1CCn2ncc(-c3ccc(F)cc3F)c2C1 | 1180 | 42 |
| 0.155 | 6.2 | 158 (≈ 401 µM) | 20 | O=C(Nc1ccc(F)c(Cl)c1)N1CCn2ncc(N3CCOCC3=O)c2C1 | > 645 | > 100 |
| 0.133 |  |  |  | C[C@H]1CN(C(=O)Nc2ccc(F)c(Cl)c2)Cc2c(-c3ccc(F)cc3)cnn21 | 210 | 28 |
| 0.155 | 16 |  | 65 | O=C(Nc1ccc(F)c(F)c1)N1CCn2ncc(-c3ccc(F)cc3)c2C1 | 222 | 34 |
| 0.037 |  |  |  | C[C@@H]1CN(C(=O)Nc2ccc(F)c(Cl)c2)Cc2c(-c3ccc(F)cc3)cnn21 | 2620 | 97 |
